Here are results for eight compounds from ChEMBL document CHEMBL1135781 (J Med Chem, 2002).

Structures are written as SMILES.

In this assay the target is Melatonin receptor (Homo sapiens, UniProt P48039+P49286). In words: Ability to inhibit 2-[125I]iodomelatonin specific binding to human melatonin receptor type 1A (MT1) expressed in CHO cells. Format: cell-based.

For `COc1ccc2c(c1)[C@H](CCNC(C)=O)CC2`, the Ki (in general, a dissociation constant, usually derived from enzyme kinetics or from competition with a known ligand) was 0.0733 nM. The compound `COc1ccc2c(c1)C(CCNC(=O)C(F)(F)F)=C(c1ccccc1)C2` showed a Ki of 0.00602 nM. `COc1ccc2c(c1)C(CCNC(C)=O)CC2` (stereo not drawn) showed a Ki of 0.131 nM. Compound `COc1ccc2c(c1)C(CCNC(=O)C(F)(F)F)C(c1ccccc1)C2` (stereo not drawn) yielded a Ki of 1.6 nM. In turn, `COc1ccc2c(c1)[C@@H](CCNC(C)=O)CC2` returned a Ki of 10.6 nM. For `CCCC(=O)NCCC1CCc2ccc(OC)cc21` (stereo not drawn) the value was 0.0553 nM; for `CCCC(=O)NCC[C@H]1CCc2ccc(OC)cc21`, 43.7 nM; for `CCCC(=O)NCC[C@@H]1CCc2ccc(OC)cc21`, 0.0321 nM.
